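Five compound concentrations were applied to cells in 96-well plates for 48 hours; endpoints were derived by simple linear interpolation of the resulting dose-response curve. TGI marks complete inhibition of growth.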
Columns and labels:
Experiment in all cases: DTP human tumour cell line panel, 48 h
HOP-92 NSCLC = test system: HOP-92 NSCLC
CCRF-CEM leukemia = test system: CCRF-CEM leukemia
MDA-MB-231 breast = test system: MDA-MB-231 breast
SK-MEL-2 melanoma = test system: SK-MEL-2 melanoma
OVCAR-4 ovarian = test system: OVCAR-4 ovarian
PC-3 prostate = test system: PC-3 prostate
RPMI-8226 leukemia = test system: RPMI-8226 leukemia
MDA-N = test system: MDA-N
KM12 colon = test system: KM12 colon
OVCAR-8 ovarian = test system: OVCAR-8 ovarian
LOX IMVI melanoma = test system: LOX IMVI melanoma

CC(=O)Oc1c(C)c2c(c3ccccc13)OC(C)(C)C2 was tested, and the TGI (HOP-92 NSCLC) was 31.9 µM, the TGI (CCRF-CEM leukemia) was over 100 µM and the TGI (MDA-MB-231 breast) was 48.6 µM. It also gave a TGI (SK-MEL-2 melanoma) of 34 µM, a TGI (OVCAR-4 ovarian) of 30 µM and a TGI (PC-3 prostate) of 47.2 µM. It also gave a TGI (RPMI-8226 leukemia) of 39.1 µM, a TGI (MDA-N) of 24.9 µM and a TGI (KM12 colon) of 27.6 µM. For the same molecule, the TGI (OVCAR-8 ovarian) was 32.5 µM.
COc1ccc2c(CCNS(=O)(=O)c3ccccc3)c(C(C)=O)[nH]c2c1 was tested, and the TGI (LOX IMVI melanoma) was over 100 µM, the TGI (HOP-92 NSCLC) was over 100 µM and the TGI (CCRF-CEM leukemia) was over 100 µM. For the same molecule, the TGI (MDA-MB-231 breast) was over 100 µM, the TGI (SK-MEL-2 melanoma) was over 100 µM and the TGI (OVCAR-4 ovarian) was over 100 µM. It also gave a TGI (PC-3 prostate) of over 100 µM, a TGI (RPMI-8226 leukemia) of over 100 µM and a TGI (MDA-N) of over 100 µM. It also gave a TGI (KM12 colon) of over 100 µM and a TGI (OVCAR-8 ovarian) of over 100 µM.
In the case of BrCC(Br)(c1ccccc1)c1ccccc1-c1cc(-c2ccccc2)cc(-c2ccccc2)n1 (stereo not given), the TGI (LOX IMVI melanoma) was 5.88 µM, the TGI (HOP-92 NSCLC) was 11.4 µM and the TGI (CCRF-CEM leukemia) was over 53.3 µM. The TGI (MDA-MB-231 breast) was 11.4 µM, the TGI (SK-MEL-2 melanoma) was 5.47 µM and the TGI (OVCAR-4 ovarian) was 53.9 µM. It also gave a TGI (PC-3 prostate) of 10.6 µM, a TGI (RPMI-8226 leukemia) of 18.2 µM and a TGI (MDA-N) of 10.9 µM. It also gave a TGI (KM12 colon) of 12.6 µM and a TGI (OVCAR-8 ovarian) of 16.7 µM.
O=C(NNC(=S)NCc1ccccc1)C12CC3CC(CC(C3)C1)C2 showed a TGI (LOX IMVI melanoma) of over 100 µM, a TGI (CCRF-CEM leukemia) of over 100 µM and a TGI (MDA-MB-231 breast) of over 100 µM. The TGI (SK-MEL-2 melanoma) was over 100 µM, the TGI (OVCAR-4 ovarian) was over 100 µM and the TGI (PC-3 prostate) was over 100 µM. It also gave a TGI (RPMI-8226 leukemia) of over 100 µM, a TGI (MDA-N) of over 100 µM and a TGI (KM12 colon) of over 100 µM. It also gave a TGI (OVCAR-8 ovarian) of over 100 µM.
For CC[C@@H](/C=C\CCC1(C[C@@H](N)CCC=C(C)C)OCCO1)O[Si](C(C)C)(C(C)C)C(C)C, the TGI (LOX IMVI melanoma) was 18.3 µM, the TGI (HOP-92 NSCLC) was 28.7 µM and the TGI (CCRF-CEM leukemia) was 58.7 µM. It also gave a TGI (MDA-MB-231 breast) of 33.6 µM, a TGI (SK-MEL-2 melanoma) of 31.7 µM and a TGI (OVCAR-4 ovarian) of 36.8 µM. It also gave a TGI (PC-3 prostate) of 29.6 µM, a TGI (RPMI-8226 leukemia) of 38 µM and a TGI (MDA-N) of 30.7 µM. It also gave a TGI (KM12 colon) of 35.3 µM and a TGI (OVCAR-8 ovarian) of 26.4 µM.
CN1C(=O)C23CCCCC2CC1(c1ccccc1)S3 (stereo not given) was tested, and the TGI (LOX IMVI melanoma) was over 100 µM, the TGI (HOP-92 NSCLC) was over 100 µM and the TGI (MDA-MB-231 breast) was over 100 µM. It also gave a TGI (SK-MEL-2 melanoma) of over 100 µM, a TGI (OVCAR-4 ovarian) of over 100 µM and a TGI (PC-3 prostate) of over 100 µM. The TGI (RPMI-8226 leukemia) was over 100 µM, the TGI (MDA-N) was over 100 µM and the TGI (KM12 colon) was over 100 µM. It also gave a TGI (OVCAR-8 ovarian) of over 100 µM.
In the case of CC(=O)Nc1ccc2cc3[nH]c4cc(NC(C)=O)ccc4c3nc2c1, the TGI (LOX IMVI melanoma) was over 100 µM, the TGI (HOP-92 NSCLC) was over 100 µM and the TGI (CCRF-CEM leukemia) was over 100 µM. It also gave a TGI (MDA-MB-231 breast) of over 100 µM, a TGI (SK-MEL-2 melanoma) of over 100 µM and a TGI (OVCAR-4 ovarian) of over 100 µM. The TGI (PC-3 prostate) was over 100 µM, the TGI (RPMI-8226 leukemia) was over 100 µM and the TGI (MDA-N) was over 100 µM. The TGI (KM12 colon) was over 100 µM and the TGI (OVCAR-8 ovarian) was over 100 µM.
For N#CCCN(CCC#N)c1ccc(C(N=Nc2ccc(Cl)cc2)=Nc2ccc(F)cc2)cc1, the TGI (HOP-92 NSCLC) was over 100 µM, the TGI (CCRF-CEM leukemia) was over 100 µM and the TGI (MDA-MB-231 breast) was over 100 µM. It also gave a TGI (OVCAR-4 ovarian) of over 100 µM, a TGI (PC-3 prostate) of over 100 µM and a TGI (RPMI-8226 leukemia) of over 100 µM. It also gave a TGI (MDA-N) of over 100 µM, a TGI (KM12 colon) of over 100 µM and a TGI (OVCAR-8 ovarian) of over 100 µM.
Molecule NC(N)=NS(=O)(=O)c1ccc(NC(=O)c2ccc3[nH]c4ccccc4c(=O)c3c2)cc1 has a TGI (LOX IMVI melanoma) of over 100 µM, a TGI (HOP-92 NSCLC) of over 100 µM and a TGI (CCRF-CEM leukemia) of over 100 µM. For the same molecule, the TGI (MDA-MB-231 breast) was over 100 µM, the TGI (SK-MEL-2 melanoma) was over 100 µM and the TGI (OVCAR-4 ovarian) was over 100 µM. The TGI (PC-3 prostate) was over 100 µM, the TGI (RPMI-8226 leukemia) was over 100 µM and the TGI (MDA-N) was over 100 µM. It also gave a TGI (KM12 colon) of over 100 µM and a TGI (OVCAR-8 ovarian) of over 100 µM.
NC(=S)NS(=O)(=O)c1ccc(F)cc1F gave a TGI (LOX IMVI melanoma) of over 100 µM, a TGI (HOP-92 NSCLC) of over 100 µM and a TGI (CCRF-CEM leukemia) of over 100 µM. It also gave a TGI (MDA-MB-231 breast) of over 100 µM, a TGI (SK-MEL-2 melanoma) of over 100 µM and a TGI (OVCAR-4 ovarian) of over 100 µM. The TGI (PC-3 prostate) was over 100 µM, the TGI (RPMI-8226 leukemia) was over 100 µM and the TGI (MDA-N) was over 100 µM. For the same molecule, the TGI (KM12 colon) was over 100 µM and the TGI (OVCAR-8 ovarian) was over 100 µM.

Reference: PubChem BioAssay (NCI)
